Counter-ions that a name gives are not always drawn. Like-named read-outs stand apart in the source and are kept apart here.
Tests used:
[1] = tested on: NCI-H292 lung cancer cells; test: FDA drug screening, complete media vs cholesterol-free media without statin (TABLE 1); format: cell-based, human
[2] = tested on: NCI-H292 lung cancer cells; test: FDA drug screening, complete media vs cholesterol-free media with simvastatin (TABLE 2); format: cell-based, human
[3] = NCI-H292 cells, cholesterol-free media without statin
[4] = complete vs cholesterol-free media, greater than 0 enhanced anti-cancer activity, about 0 neutral, below 0 antagonists
[5] = NCI-H292 cells, cholesterol-free media with simvastatin 0.04 μM, FDA drug library screen (TABLE 2)
[6] = NCI-H292 cells, complete media, FDA drug library screen (TABLE 2)
[7] = complete media minus cholesterol-free media + simvastatin (0.04 μM), >0 enhanced anti-cancer activity, about 0 neutral, <0 antagonist
[8] = complete media vs cholesterol-free media + simvastatin (0.04 μM), >0 enhanced anti-cancer activity, about 0 neutral, <0 antagonist
[9] = Complete minus Cholesterol-free, >0 enhanced anti-cancer activity, about 0 neutral, <0 antagonist
[10] = NCI-H292 cells, FDA drug library screen, complete media
[11] = NCI-H292 cells, FDA drug library screen, cholesterol-free media with simvastatin 0.04 μM
[12] = Complete minus Cholesterol-free, greater than 0 enhanced anti-cancer activity, about 0 neutral, below 0 antagonists
[13] = NCI-H292 cells in cholesterol-free media without statin
[14] = NCI-H292 cells in complete media
[15] = NCI-H292 cells, cholesterol-free media with simvastatin 0.04 μM, cell growth value in FDA drug screen
[16] = NCI-H292 cells, complete media, cell growth value in FDA drug screen
[17] = complete media minus cholesterol-free media + simvastatin, >0 enhanced anti-cancer activity, about 0 neutral, <0 antagonist
[18] = NCI-H292 cells, FDA library drug in cholesterol-free media with simvastatin 0.04 μM
[19] = NCI-H292 cells, FDA library drug in complete media
[20] = NCI-H292 cells, cholesterol-free media without statin, FDA drug library screen
[21] = NCI-H292 cells, complete media, FDA drug library screen
[22] = complete vs cholesterol-free media, >0 enhanced anti-cancer activity, about 0 neutral, <0 antagonist

**Q.** `CC(C)NCC(O)COc1cccc2ccccc12` (stereo not drawn) [Propranolol (hydrochloride)] was tested. Which Cholesterol-free [1, 3] did it give?
**A.** Its Cholesterol-free is 1.016.

**Q.** And the Complete ([1]; NCI-H292 cells, complete media)?
**A.** The Complete was 0.5683.

**Q.** And the Difference [1, 4]?
**A.** Its Difference is −0.45.

**Q.** What about the “Cholesterol-free media + simvastatin (0.04 μM)” value [2, 5] of the same molecule?
**A.** Its value is 0.8722.

**Q.** What about the “Complete Media” value [2, 6] of the same molecule?
**A.** Its value is 0.8715.

**Q.** What about the Difference [2, 7] of the same molecule?
**A.** Its Difference is 0.00.

**Q.** For `CCCOC(=O)c1cc(O)c(O)c(O)c1` [Propyl gallate], which Cholesterol-free [1, 3] is on record?
**A.** The Cholesterol-free was 1.541.

**Q.** And the Complete ([1]; NCI-H292 cells, complete media)?
**A.** The Complete was 1.125.

**Q.** What about the Difference [1, 4] of the same molecule?
**A.** The Difference was −0.42.

**Q.** And the “Cholesterol-free media + simvastatin (0.04 μM)” value ([2]; NCI-H292 cells, drug in cholesterol-free media with simvastatin 0.04 μM)?
**A.** The value was 1.306.

**Q.** And the “Complete Media” value ([2]; NCI-H292 cells, drug in complete media)?
**A.** Its value is 1.135.

**Q.** And the Difference [2, 8]?
**A.** The Difference was −0.17.

**Q.** What does the source list for `CCCc1cc(=O)[nH]c(=S)[nH]1` [Propylthiouracil]?
**A.** Difference [1, 9]: −0.23; Cholesterol-free [1, 3]: 1.082; Complete ([1]; NCI-H292 cells, complete media): 0.8473; Cholesterol-free media + simvastatin (0.04 μM) [2, 5]: 0.9529; Complete Media [2, 6]: 0.939; Difference [2, 7]: −0.01

**Q.** For `Cc1c(C(C)C)c(=O)n(-c2ccccc2)n1C` [Propyphenazone], which Difference ([1]; Complete minus Cholesterol-free, greater than 0 enhanced anti-cancer activity, about 0 neutral, below 0 antagonist) is on record?
**A.** The Difference was −0.12.

**Q.** What about the Cholesterol-free ([1]; NCI-H292 cells, FDA drug library screen, cholesterol-free media without statin) of the same molecule?
**A.** The Cholesterol-free was 1.128.

**Q.** What about the Complete [1, 10] of the same molecule?
**A.** The Complete was 1.005.

**Q.** What about the “Cholesterol-free media + simvastatin (0.04 μM)” value [2, 11] of the same molecule?
**A.** Its value is 2.378.

**Q.** And the Difference [2, 7]?
**A.** Its Difference is −1.31.

**Q.** How did the Difference [1, 12] turn out when `CCCCC[C@H](O)/C=C/[C@H]1[C@H](O)CC(=O)[C@@H]1C/C=C\CCCC(=O)O` [Prostaglandin E2] was run?
**A.** Its Difference is −0.61.

**Q.** What about the Cholesterol-free [1, 13] of the same molecule?
**A.** The Cholesterol-free was 1.546.

**Q.** And the Complete [1, 14]?
**A.** Its Complete is 0.9346.

**Q.** What about the “Cholesterol-free media + simvastatin (0.04 μM)” value [2, 15] of the same molecule?
**A.** The value was 0.8899.

**Q.** What about the “Complete Media” value [2, 16] of the same molecule?
**A.** The value was 0.9562.

**Q.** What about the Difference [2, 17] of the same molecule?
**A.** Its Difference is 0.07.

**Q.** Which results are given for `CCCc1cc(C(N)=S)ccn1` [Prothionamide]?
**A.** Difference [1, 12]: −0.62; Cholesterol-free [1, 13]: 1.391; Complete [1, 14]: 0.7758; Cholesterol-free media + simvastatin (0.04 μM) [2, 15]: 1.039; Complete Media [2, 16]: 1.099; Difference [2, 17]: 0.06

**Q.** How did the Difference [1, 9] turn out when `CNCCCC1c2ccccc2C=Cc2ccccc21` [Protriptyline (hydrochloride)] was run?
**A.** The Difference was −0.19.

**Q.** And the Cholesterol-free [1, 3]?
**A.** Its Cholesterol-free is 1.347.

**Q.** What about the “Cholesterol-free media + simvastatin (0.04 μM)” value [2, 18] of the same molecule?
**A.** Its value is 1.142.

**Q.** What about the “Complete Media” value [2, 19] of the same molecule?
**A.** The value was 0.7923.

**Q.** What about the Difference [2, 8] of the same molecule?
**A.** The Difference was −0.35.

**Q.** Which results are given for `CC(O)Cn1cnc2c1c(=O)n(C)c(=O)n2C` (stereo not drawn) [Proxyphylline]?
**A.** Cholesterol-free [1, 20]: 0.7713; Complete [1, 21]: 1.327; Difference [1, 22]: 0.56; Cholesterol-free media + simvastatin (0.04 μM) [2, 18]: 1.208; Complete Media [2, 19]: 0.9431; Difference [2, 8]: −0.26

**Q.** Which results are given for `COCCCN1CCC(NC(=O)c2cc(Cl)c(N)c3c2OCC3)CC1` [Prucalopride]?
**A.** Difference [1, 12]: −0.49; Cholesterol-free [1, 13]: 1.522; Complete [1, 14]: 1.033; Cholesterol-free media + simvastatin (0.04 μM) [2, 15]: 0.8751; Complete Media [2, 16]: 0.9854; Difference [2, 17]: 0.11

**Q.** `Cc1oc(=O)oc1CN1CCN(c2cc3c(cc2F)c(=O)c(C(=O)O)c2n3C(C)S2)CC1` (stereo not drawn) [Prulifloxacin] was tested. Which Cholesterol-free [1, 20] did it give?
**A.** The Cholesterol-free was 1.111.

**Q.** And the Complete [1, 21]?
**A.** The Complete was 1.213.

**Q.** And the Difference [1, 22]?
**A.** The Difference was 0.10.

**Q.** What about the “Cholesterol-free media + simvastatin (0.04 μM)” value [2, 11] of the same molecule?
**A.** The value was 0.966.

**Q.** And the Difference [2, 17]?
**A.** Its Difference is 0.21.

**Q.** Which results are given for `O=c1c(-c2ccc(O)cc2)coc2c([C@@H]3O[C@H](CO)[C@@H](O)[C@H](O)[C@H]3O)c(O)ccc12` [Puerarin]?
**A.** Difference [1, 9]: −0.27; Cholesterol-free [1, 3]: 1.203; Complete ([1]; NCI-H292 cells, complete media): 0.9306; Cholesterol-free media + simvastatin (0.04 μM) [2, 15]: 0.9456; Complete Media [2, 16]: 1.081; Difference [2, 17]: 0.14

**Q.** For `COc1ccc(C[C@H](N)C(=O)N[C@H]2[C@@H](O)[C@H](n3cnc4c(N(C)C)ncnc43)O[C@@H]2CO)cc1` [Puromycin (dihydrochloride)], which Difference [1, 9] is on record?
**A.** The Difference was −0.02.

**Q.** What about the Cholesterol-free [1, 20] of the same molecule?
**A.** Its Cholesterol-free is 0.005958.

**Q.** And the Complete [1, 21]?
**A.** The Complete was −0.01645.

**Q.** And the “Cholesterol-free media + simvastatin (0.04 μM)” value [2, 5]?
**A.** Its value is −0.002227.

**Q.** What about the “Complete Media” value [2, 6] of the same molecule?
**A.** The value was −0.05066.

**Q.** And the Difference [2, 7]?
**A.** Its Difference is −0.05.

**Q.** How did the Cholesterol-free [1, 20] turn out when `CN1CCCN=C1/C=C/c1cccs1.O=C(O)c1cc2ccccc2c(Cc2c(O)c(C(=O)O)cc3ccccc23)c1O` [Pyrantel (pamoate)] was run?
**A.** Its Cholesterol-free is 1.079.

**Q.** What about the Complete [1, 21] of the same molecule?
**A.** The Complete was 1.203.

**Q.** And the Difference [1, 22]?
**A.** Its Difference is 0.12.

**Q.** What about the “Cholesterol-free media + simvastatin (0.04 μM)” value [2, 18] of the same molecule?
**A.** The value was 1.254.

**Q.** What about the “Complete Media” value [2, 19] of the same molecule?
**A.** Its value is 0.856.

**Q.** What about the Difference [2, 8] of the same molecule?
**A.** Its Difference is −0.40.

**Q.** For `NC(=O)c1cnccn1` [Pyrazinamide], which Difference [1, 9] is on record?
**A.** Its Difference is 0.04.

**Q.** What about the Cholesterol-free [1, 20] of the same molecule?
**A.** Its Cholesterol-free is 0.9745.

**Q.** And the Complete [1, 21]?
**A.** Its Complete is 1.011.

**Q.** What about the “Cholesterol-free media + simvastatin (0.04 μM)” value [2, 11] of the same molecule?
**A.** The value was 0.9396.

**Q.** And the “Complete Media” value [2, 10]?
**A.** The value was 0.8009.

**Q.** What about the Difference [2, 8] of the same molecule?
**A.** The Difference was −0.14.

**Q.** `CN(C)C(=O)Oc1ccc[n+](C)c1.[Br-]` [Pyridostigmine (bromide)] was tested. Which Cholesterol-free [1] did it give?
**A.** The Cholesterol-free was 0.882.

**Q.** What about the Complete [1] of the same molecule?
**A.** The Complete was 0.9353.

**Q.** And the Difference [1]?
**A.** Its Difference is 0.05.

**Q.** What about the “Cholesterol-free media + simvastatin (0.04 μM)” value [2] of the same molecule?
**A.** The value was 1.546.

**Q.** And the “Complete Media” value [2]?
**A.** The value was 1.09.

**Q.** And the Difference [2]?
**A.** Its Difference is −0.46.
